In article PMC8535176, “Efficacy of epetraborole against Mycobacterium abscessus is increased with norvaline” (PLoS Pathogens, 2021):
Converted amounts (≈) assume the structure as drawn.

Key:
[1] = target: T1, M. tuberculosis LeuRS editing domain (LeuRSMtb; pMtbED) (Mycobacterium tuberculosis, UniProt P9WFV1); test: isothermal titration calorimetry; assay type: binding
T1 construct: gene leuS
Text: isothermal titration calorimetry on M. tuberculosis LeuRS editing domain (LeuRSMtb; pMtbED)

[2] = target: T2, M. abscessus LeuRS editing domain (LeuRSMabs; pMabsED) (Mycobacteroides abscessus, UniProt B1MMK6); test: isothermal titration calorimetry; assay type: binding
T2 construct: gene leuS; editing domain, residues 303-499 (text on crystals prints 303-498); N-terminal His tag with TEV site, removed; synthetic codon-optimised gene, pET24a(+), E. coli BL21(DE3)
T2 sequence (B1MMK6 303-499): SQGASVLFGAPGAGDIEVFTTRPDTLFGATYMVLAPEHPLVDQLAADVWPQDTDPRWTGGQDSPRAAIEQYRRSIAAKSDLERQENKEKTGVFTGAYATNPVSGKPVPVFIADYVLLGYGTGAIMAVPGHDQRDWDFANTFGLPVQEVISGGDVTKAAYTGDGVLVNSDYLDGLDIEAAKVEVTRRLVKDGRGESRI
Text: isothermal titration calorimetry on M. abscessus LeuRS editing domain (LeuRSMabs; pMabsED)

[3] = system: B. cereus; test: microbe, parasite or virus in culture; set-up: Whole-cell growth inhibition, dose-response MIC (MIC90) by resazurin microtiter assay (REMA), fluorescence read-out; conditions: Bacillus cereus, read-out: MIC (µg/mL) / EPT
[4] = system: C. glutamicum; test: microbe, parasite or virus in culture; set-up: Whole-cell growth inhibition, dose-response MIC (MIC90) by resazurin microtiter assay (REMA), fluorescence read-out; conditions: Corynebacterium glutamicum, read-out: MIC (µg/mL) / EPT
[5] = system: E. coli; test: microbe, parasite or virus in culture; set-up: Whole-cell growth inhibition, dose-response MIC (MIC90) by resazurin microtiter assay (REMA), fluorescence read-out; conditions: Escherichia coli, read-out: MIC (µg/mL) / EPT
[6] = system: M. abscessus; test: microbe, parasite or virus in culture; set-up: Whole-cell growth inhibition, dose-response MIC (MIC90) by resazurin microtiter assay (REMA), fluorescence read-out; conditions: Mycobacteroides abscessus, read-out: MIC (µg/mL) / EPT
[7] = system: M. avium hominissuis; test: microbe, parasite or virus in culture; set-up: Whole-cell growth inhibition, dose-response MIC (MIC90) by resazurin microtiter assay (REMA), fluorescence read-out; conditions: Mycobacterium avium, read-out: MIC (µg/mL) / EPT
[8] = system: M. avium intracellulaire; test: microbe, parasite or virus in culture; set-up: Whole-cell growth inhibition, dose-response MIC (MIC90) by resazurin microtiter assay (REMA), fluorescence read-out; conditions: Mycobacterium avium, read-out: MIC (µg/mL) / EPT
[9] = system: T3, M. tuberculosis Erdman; test: microbe, parasite or virus in culture; set-up: Whole-cell growth inhibition, dose-response MIC (MIC90) by resazurin microtiter assay (REMA), fluorescence read-out; conditions: Mycobacterium tuberculosis, ERDMAN, read-out: MIC (µg/mL) / EPT
T3 construct: Erdman

[10] = system: T4, M. tuberculosis H37Rv; test: microbe, parasite or virus in culture; set-up: Whole-cell growth inhibition, dose-response MIC (MIC90) by resazurin microtiter assay (REMA), fluorescence read-out; conditions: Mycobacterium tuberculosis, H37RV, read-out: MIC (µg/mL) / EPT
T4 construct: H37Rv

[11] = system: P. aeruginosa; test: microbe, parasite or virus in culture; set-up: Whole-cell growth inhibition, dose-response MIC (MIC90) by resazurin microtiter assay (REMA), fluorescence read-out; conditions: Pseudomonas aeruginosa, read-out: MIC (µg/mL) / EPT
[12] = system: T5, Mycobacteroides abscessus subsp. abscessus ATCC 19977; test: microbe, parasite or virus in culture; set-up: species or system M. abscessus; Resazurin microtiter assay (REMA), fluorescence; MIC at 90% growth inhibition from Gompertz fit; conditions: ATCC19977, 48 h, rough morphotype, read-out: MIC EPT
T5 construct: ATCC 19977
Procedure: (§1) MIC values were determined using the resazurin microtiter assay (REMA). Cultures were grown to log phase (OD600 of 0.4–0.8) and diluted to OD600 of 0.005. Drugs were prepared in two-fold serial dilutions in 96-well plates with 90 μL of bacteria per well to a final volume of 100 μL. Plates were incubated at 37°C until drug-free wells were turbid (2 days for M. abscessus). Ten μL of resazurin (0.025% wt/vol) was added to each well. Once the drug-free wells turned pink (one doubling time), the fluorescence (ex/em 560nm/590nm) was measured using an Infinite F200 Tecan plate reader. Fluorescence intensities were converted to % viable cells relative to drug-free conditions and fit to the Gompertz equation using GraphPad Prism version 9. MIC values at 90% growth inhibition were determined from the nonlinear regression Gompertz equation. Next, we tested the in vitro activity of EPT against a panel of M. abscessus clinical isolates belonging to the three subspecies of the M. abscessus complex (M. abscessus, M. massiliense, and M. bolletii) with smooth and rough colony morphologies and with different drug susceptibility profiles to various antibiotics. There was no loss in activity against clinical isolates (range of 0.014–0.046 μg/mL) nor different morphologies (S2 Table). To determine the spectrum of activity of EPT, we curated a panel of various mycobacteria and representative gram-positive and gram-negative bacteria. […] Mycobacteria strains were grown in rolling [compound left out] culture at 37°C in Middlebrook 7H9 (Difco) supplemented with 10% albumin dextrose catalase (ADC), 0.2% glycerol, and 0.05% Tween 80 (7H9 complete) or on 7H10 agar plates supplemented with 10% oleic acid ADC and 0.5% glycerol at 37°C. When mentioned, the carbon source was modified from glycerol to acetate or the detergent Tween 80 was removed from the media. Bacillus cereus (clinical isolate), Corynebacterium glutamicum (ATCC 13032), Escherichia coli, and Pseudomonas aeruginosa PAO1 were grown in LB broth. HepG2 cells (ATCC HB-8065) were grown in Dulbecco’s modified Eagle’s medium (DMEM) with phenol red (from Gibco) supplemented with 10% fetal bovine serum at 37°C with 5% CO2.

[13] = system: T6, Mycobacteroides abscessus subsp. abscessus MT16_1065; test: microbe, parasite or virus in culture; set-up: species or system M. abscessus; Resazurin microtiter assay (REMA), fluorescence; MIC at 90% growth inhibition from Gompertz fit; conditions: 48 h, smooth morphotype, read-out: MIC EPT
T6 construct: MT16_1065
Procedure: as §1

[14] = system: T7, Mycobacteroides abscessus subsp. abscessus MT16_6490; test: microbe, parasite or virus in culture; set-up: species or system M. abscessus; Resazurin microtiter assay (REMA), fluorescence; MIC at 90% growth inhibition from Gompertz fit; conditions: 48 h, smooth morphotype, read-out: MIC EPT
T7 construct: MT16_6490
Procedure: as §1

[15] = system: T8, Mycobacteroides abscessus subsp. bolletii AV; test: microbe, parasite or virus in culture; set-up: species or system M. abscessus; Resazurin microtiter assay (REMA), fluorescence; MIC at 90% growth inhibition from Gompertz fit; conditions: 48 h, smooth morphotype, read-out: MIC EPT
T8 construct: AV
Procedure: as §1

[16] = system: T9, Mycobacteroides abscessus subsp. bolletii Paris 167; test: microbe, parasite or virus in culture; set-up: species or system M. abscessus; Resazurin microtiter assay (REMA), fluorescence; MIC at 90% growth inhibition from Gompertz fit; conditions: 48 h, rough morphotype, read-out: MIC EPT
T9 construct: Paris 167
Procedure: as §1

[17] = system: T10, Mycobacteroides abscessus subsp. massiliense MT15_1748; test: microbe, parasite or virus in culture; set-up: species or system M. abscessus; Resazurin microtiter assay (REMA), fluorescence; MIC at 90% growth inhibition from Gompertz fit; conditions: 48 h, rough morphotype, read-out: MIC EPT
T10 construct: MT15_1748
Procedure: as §1

[18] = system: T11, Mycobacteroides abscessus subsp. massiliense MT15_1749; test: microbe, parasite or virus in culture; set-up: species or system M. abscessus; Resazurin microtiter assay (REMA), fluorescence; MIC at 90% growth inhibition from Gompertz fit; conditions: 48 h, rough morphotype, read-out: MIC EPT
T11 construct: MT15_1749
Procedure: as §1

T1 sequence (P9WFV1 311-512 limits assumed): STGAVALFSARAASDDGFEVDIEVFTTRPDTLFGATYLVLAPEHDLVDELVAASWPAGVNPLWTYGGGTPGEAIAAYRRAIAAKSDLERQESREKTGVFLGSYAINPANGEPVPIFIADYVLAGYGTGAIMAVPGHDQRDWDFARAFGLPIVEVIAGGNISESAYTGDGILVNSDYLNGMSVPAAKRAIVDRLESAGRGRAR

In the case of `NC[C@H]1OB(O)c2c(OCCCO)cccc21` [epetraborole], the Kd [1] is reported as 10 ± 4 µM, the Kd [2] is reported as 16 ± 4 µM and the MIC [3] is reported as greater than 2.7 µg/mL. The MIC [4] was 2 µg/mL (≈ 8.44 µM), the MIC [5] was 5.7 µg/mL (≈ 24 µM) and the MIC [6] was 0.063 µg/mL (≈ 0.266 µM). It also gave an MIC [7] of 2.7 µg/mL (≈ 11.4 µM), an MIC [8] of 2.7 µg/mL (≈ 11.4 µM) and an MIC [9] of 0.19 µg/mL (≈ 0.801 µM). For the same compound, the MIC [10] was 0.46 µg/mL (≈ 1.94 µM), the MIC [11] was greater than 2.7 µg/mL and the MIC [12] was 0.11 µg/mL (≈ 0.464 µM). For the same compound, the MIC [13] was 0.041 µg/mL (≈ 0.173 µM), the MIC [14] was 0.03 µg/mL (≈ 0.127 µM) and the MIC [15] was 0.046 µg/mL (≈ 0.194 µM). It also gave an MIC [16] of 0.027 µg/mL (≈ 0.114 µM), an MIC [17] of 0.022 µg/mL (≈ 0.0928 µM) and an MIC [18] of 0.014 µg/mL (≈ 0.0591 µM).
